In PubChem BioAssay AID256 (DTP/NCI, 2004):
Toxic doses and inconclusive results are not listed. Rule for the calls: active = survival T/C of 150% or more; inactive = T/C below 125% in these data.

Test system: CD2F1 mice, L1210 leukemia ip, survival T/C
Assay: NCI In Vivo Anticancer Drug Screen. Data for tumor model L1210 Leukemia (intraperitoneal) in CD2F1 (CDF1) mice
Conditions: endpoint: mean survival time, higher = longer survival
How it was run: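 Mice carrying a transplanted tumor received test compound or vehicle alone. The value is the measurement in the treated group divided by that in the vehicle-treated control group.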

[1] = dose: 100.0 mg/kg/injection, schedule: Q04DX003 (ip), vehicle: saline
[2] = dose: 200.0 mg/kg/injection, schedule: Q04DX003 (ip), vehicle: saline
[3] = dose: 400.0 mg/kg/injection, schedule: Q04DX003 (ip), vehicle: saline

Measured: T/C

COC(=O)C(N)CCCCNc1ccc2c(cc1=O)C(NC(C)=O)CCc1cc(OC)c(OC)c(OC)c1-2 (stereo not given)
inactive: dose: 3.1 mg/kg/injection, schedule: Q03HX008 (ip), vehicle: saline 105 % of control | dose: 3.1 mg/kg/injection, schedule: Q03HX016 (ip), vehicle: saline 91 % of control | dose: 3.1 mg/kg/injection, schedule: Q03HX024 (ip), vehicle: saline 96 % of control | dose: 6.3 mg/kg/injection, schedule: Q03HX008 (ip), vehicle: saline 92 % of control | dose: 6.3 mg/kg/injection, schedule: Q03HX016 (ip), vehicle: saline 103 % of control | dose: 6.3 mg/kg/injection, schedule: Q03HX024 (ip), vehicle: saline 102 % of control | dose: 12.5 mg/kg/injection, schedule: Q01DX009 (ip), vehicle: saline 91 % of control | dose: 12.5 mg/kg/injection, schedule: Q01DX009 (sc), vehicle: saline 88 % of control | dose: 12.5 mg/kg/injection, schedule: Q03HX008 (ip), vehicle: saline 97 % of control | dose: 12.5 mg/kg/injection, schedule: Q03HX016 (ip), vehicle: saline 97 % of control | dose: 12.5 mg/kg/injection, schedule: Q03HX024 (ip), vehicle: saline 107 % of control | dose: 25.0 mg/kg/injection, schedule: Q01DX001 (ip), vehicle: saline 102 % of control | dose: 25.0 mg/kg/injection, schedule: Q01DX001 (oral), vehicle: saline 100 % of control | dose: 25.0 mg/kg/injection, schedule: Q01DX001 (sc), vehicle: saline 88 % of control | dose: 25.0 mg/kg/injection, schedule: Q01DX009 (ip), vehicle: saline 100 % of control | dose: 25.0 mg/kg/injection, schedule: Q01DX009 (oral), vehicle: saline 96 % of control | dose: 25.0 mg/kg/injection, schedule: Q01DX009 (sc), vehicle: saline 91 % of control | dose: 25.0 mg/kg/injection, schedule: Q03HX008 (ip), vehicle: saline 105 % of control | dose: 25.0 mg/kg/injection, schedule: Q03HX016 (ip), vehicle: saline 94 % of control | dose: 25.0 mg/kg/injection, schedule: Q03HX024 (ip), vehicle: saline 108 % of control | dose: 25.0 mg/kg/injection, schedule: Q04DX003 (ip), vehicle: saline 100 % of control | dose: 25.0 mg/kg/injection, schedule: Q08DX002 (ip), vehicle: saline 91 % of control | dose: 50.0 mg/kg/injection, schedule: Q01DX001 (ip), vehicle: saline 94 % of control | dose: 50.0 mg/kg/injection, schedule: Q01DX001 (oral), vehicle: saline 94 % of control | dose: 50.0 mg/kg/injection, schedule: Q01DX001 (sc), vehicle: saline 92 % of control | dose: 50.0 mg/kg/injection, schedule: Q01DX009 (ip), vehicle: saline 103 % of control | dose: 50.0 mg/kg/injection, schedule: Q01DX009 (oral), vehicle: saline 91 % of control | dose: 50.0 mg/kg/injection, schedule: Q01DX009 (sc), vehicle: saline 91 % of control | dose: 50.0 mg/kg/injection, schedule: Q03HX008 (ip), vehicle: saline 107 % of control | dose: 50.0 mg/kg/injection, schedule: Q03HX016 (ip), vehicle: saline 97 % of control | dose: 50.0 mg/kg/injection, schedule: Q03HX024 (ip), vehicle: saline 111 % of control | dose: 50.0 mg/kg/injection, schedule: Q04DX003 (ip), vehicle: saline 92 % of control | dose: 50.0 mg/kg/injection, schedule: Q08DX002 (ip), vehicle: saline 103 % of control | dose: 53.0 mg/kg/injection, schedule: Q01DX005 (ip), vehicle: saline 108 % of control | dose: 53.0 mg/kg/injection, schedule: Q01DX009 (ip), vehicle: saline 107 % of control | dose: 53.0 mg/kg/injection, schedule: Q04DX003 (ip), vehicle: saline 87 % of control | dose: 80.0 mg/kg/injection, schedule: Q01DX005 (ip), vehicle: saline 114 % of control | dose: 80.0 mg/kg/injection, schedule: Q01DX009 (ip), vehicle: saline 110 % of control | dose: 80.0 mg/kg/injection, schedule: Q04DX003 (ip), vehicle: saline 87 % of control | dose: 100.0 mg/kg/injection, schedule: Q01DX001 (ip), vehicle: saline with Tween-80 106 % of control | dose: 100.0 mg/kg/injection, schedule: Q01DX001 (ip), vehicle: saline 88 % of control | dose: 100.0 mg/kg/injection, schedule: Q01DX001 (oral), vehicle: saline 96 % of control | dose: 100.0 mg/kg/injection, schedule: Q01DX001 (sc), vehicle: saline 92 % of control | dose: 100.0 mg/kg/injection, schedule: Q01DX009 (ip), vehicle: saline 114 % of control | dose: 100.0 mg/kg/injection, schedule: Q01DX009 (oral), vehicle: saline 91 % of control | dose: 100.0 mg/kg/injection, schedule: Q01DX009 (sc), vehicle: saline 92 % of control | dose: 100.0 mg/kg/injection, schedule: Q04DX002 (ip), vehicle: saline 108 % of control | [1] 91 % of control | dose: 100.0 mg/kg/injection, schedule: Q08DX002 (ip), vehicle: saline 100 % of control | dose: 120.0 mg/kg/injection, schedule: Q01DX005 (ip), vehicle: saline 118 % of control | dose: 120.0 mg/kg/injection, schedule: Q01DX009 (ip), vehicle: saline 114 % of control | dose: 120.0 mg/kg/injection, schedule: Q04DX003 (ip), vehicle: saline 98 % of control | dose: 180.0 mg/kg/injection, schedule: Q01DX005 (ip), vehicle: saline 118 % of control | dose: 180.0 mg/kg/injection, schedule: Q01DX009 (ip), vehicle: saline 105 % of control | dose: 180.0 mg/kg/injection, schedule: Q04DX003 (ip), vehicle: saline 96 % of control | dose: 200.0 mg/kg/injection, schedule: Q01DX001 (ip), vehicle: saline with Tween-80 106 % of control | dose: 200.0 mg/kg/injection, schedule: Q01DX001 (ip), vehicle: saline 97 % of control | dose: 200.0 mg/kg/injection, schedule: Q01DX001 (oral), vehicle: saline 94 % of control | dose: 200.0 mg/kg/injection, schedule: Q01DX001 (sc), vehicle: saline 97 % of control | dose: 200.0 mg/kg/injection, schedule: Q01DX009 (ip), vehicle: saline 118 % of control | dose: 200.0 mg/kg/injection, schedule: Q01DX009 (oral), vehicle: saline 96 % of control | dose: 200.0 mg/kg/injection, schedule: Q01DX009 (sc), vehicle: saline 94 % of control | dose: 200.0 mg/kg/injection, schedule: Q04DX002 (ip), vehicle: saline 104 % of control | [2] 103 % of control | dose: 200.0 mg/kg/injection, schedule: Q08DX002 (ip), vehicle: saline 111 % of control | dose: 270.0 mg/kg/injection, schedule: Q01DX005 (ip), vehicle: saline 90 % of control | dose: 270.0 mg/kg/injection, schedule: Q04DX003 (ip), vehicle: saline 98 % of control | dose: 400.0 mg/kg/injection, schedule: Q01DX001 (ip), vehicle: saline with Tween-80 107 % of control | dose: 400.0 mg/kg/injection, schedule: Q01DX001 (ip), vehicle: saline 108 % of control | dose: 400.0 mg/kg/injection, schedule: Q01DX001 (oral), vehicle: saline 96 % of control | dose: 400.0 mg/kg/injection, schedule: Q01DX001 (sc), vehicle: saline 100 % of control | [3] 113 % of control | dose: 400.0 mg/kg/injection, schedule: Q08DX002 (ip), vehicle: saline 113 % of control | dose: 800.0 mg/kg/injection, schedule: Q01DX001 (oral), vehicle: saline 94 % of control

CC(C)NC(=O)CCCCN(C(=O)OCc1ccccc1)N(C)C(=O)OCc1ccccc1
inactive: dose: 50.0 mg/kg/injection, schedule: Q04DX003 (ip), vehicle: Klucel (hydroxypropylcellulose) (HPC) 100 % of control | dose: 100.0 mg/kg/injection, schedule: Q04DX003 (ip), vehicle: Klucel (hydroxypropylcellulose) (HPC) 91 % of control | dose: 200.0 mg/kg/injection, schedule: Q04DX003 (ip), vehicle: Klucel (hydroxypropylcellulose) (HPC) 106 % of control | dose: 400.0 mg/kg/injection, schedule: Q04DX003 (ip), vehicle: Klucel (hydroxypropylcellulose) (HPC) 95 % of control

S=C(S)NNc1ccccc1
inactive: dose: 200.0 mg/kg/injection, schedule: Q04DX003 (ip), vehicle: saline with Tween-80 91 % of control

CC1(CCO)NC(=O)NC1=O (stereo not given)
inactive: dose: 100.0 mg/kg/injection, schedule: Q01DX009 (ip), vehicle: saline sonified 97 % of control | [1] 100 % of control | dose: 200.0 mg/kg/injection, schedule: Q01DX009 (ip), vehicle: saline sonified 97 % of control | [2] 96 % of control | dose: 400.0 mg/kg/injection, schedule: Q01DX009 (ip), vehicle: saline sonified 97 % of control | [3] 100 % of control
